Like-named read-outs stand apart in the source and are kept apart here.
Key:
[1] = tested on: “CD151-high” cell subpopulation obtained under conditions for differentiation into ventricular myocytes; assay: Membrane potential analysis (FluoVolt dye) of response to atrial myocyte-specific channel inhibitor or activator, CD151-high cells; format: cell-based, human; settings: 1 Hz pacing
Method: (§1) The “CD151-high” cell subpopulation was obtained under conditions for differentiation into ventricular myocytes and the “CD151-low” cell subpopulation was obtained under conditions for differentiation into atrial myocytes in Test Example 2. Then, their response to an atrial […] channel inhibitor 4-aminopyridine or activator carbachol was analyzed.
(§2) Each cell subpopulation was seeded at 5×10^4 cells/5 μL and cultured on a glass-bottom dish coated with fibronectin. StemPro-34 SFM containing 1% L-glutamine, 150 μg/mL transferrin, 50 μg/mL ascorbic acid, 4×10^−4 M monothioglycerol, and 5 ng/ml VEGF was used. The culture medium was changed every 3 days, and the cells were cultured at 37° C. under regular oxygen conditions. The cells at culture days 6 to 10 were subjected to membrane potential analysis.
(§3) First, the culture medium was removed. Next, 0.2 μL of membrane potential sensitive dye (FluoVolt, ThermoFisher scientific, F10488) was added per 200 μL of Gey's balanced salt solution (Sigma). […] Each “CD151-high”-induced cell was analyzed under 1 Hz pacing, and each “CD151-low”-induced cell was analyzed under 3 Hz pacing.
(§4) An AquaCosmos2.6 (Hamamatsu Photonics K. K.) was used for the analysis. While each cell was irradiated with excitation light at 490 nm every 5.9 ms for 20 s, the fluorescence response was measured. […]

atrial myocyte = settings: cited from earlier work
ventricular myocyte = settings: cited from earlier work
[2] = tested on: “CD151-low” cell subpopulation obtained under conditions for differentiation into atrial myocytes; assay: Membrane potential analysis (FluoVolt dye) of response to atrial myocyte-specific channel inhibitor or activator, CD151-low cells; format: cell-based, human; settings: 3 Hz pacing
Method: as §1, §2, §3, §4

[3] = 4-aminopyridine 50 μM final, 10 min after addition, FIG. 5(A)
[4] = carbachol 10 μM final, 1 min after addition, FIG. 5(B)

Row | Structure (SMILES) | effect on action potential duration (APD) [1, 3] | effect on APD20 (atrial myocyte; 4-aminopyridine added to a cell, blocker of ultra-rapidly activating delayed rectifier potassium channel (IKur)) | effect on APD (ventricular myocyte; 4-aminopyridine added to a cell) | effect on action potential duration (APD) [2, 3] | effect on action potential duration (APD) [1, 4] | effect on action potential duration (APD) (atrial myocyte; carbachol added to a cell, activator of muscarinic potassium channel (IK,Ach)) | effect on APD (ventricular myocyte; carbachol added to a cell) | effect on action potential duration (APD) [2, 4]
1 | Nc1ccncc1 [4-aminopyridine] | little APD extension | prolonged only in the atrial myocyte | not affected | prolong the action potential duration (APD) | – | – | – | –
2 | C[N+](C)(C)CCOC(N)=O [carbachol] | – | – | – | – | no APD change | shortened only in the atrial myocyte | not affected | shorten the APD

Source: patent US12421497B2, “Method for enriching cardiac myocytes” (Orizuru Therapeutics, Inc., priority 2019, dated 2025)
